Measured values published in patent publication US20250051277A1, “DELIVERY OF THERAPEUTIC ALKALOID COMPOUNDS” (Sensorium Therapeutics, Inc., priority 2021, published 2025).
Read-outs that look alike come from different tables or passages of the source.

Tests used:
[1] = assay type: physicochemical; details: DI water, 25° C., 0.5 mM
[2] = assay type: physicochemical; details: SGF with pepsin, pH 1.5, 37° C., 0.5 mM

Row | Structure (SMILES) | Condition 2 Conversion (%) ([1]; time 1 min) | Condition 2 Conversion (%) ([1]; time 5 min) | Condition 2 Conversion (%) ([1]; time 30 min) | Condition 2 Conversion (%) ([1]; time 1 h) | Condition 2 Conversion (%) ([1]; time 4 h) | Condition 2 Conversion (%) ([1]; time 24 h) | Condition 1 Conversion (%) ([2]; time 1 min) | Condition 1 Conversion (%) ([2]; time 5 min) | Condition 1 Conversion (%) ([2]; time 30 min) | Condition 1 Conversion (%) ([2]; time 1 h) | Condition 1 Conversion (%) ([2]; time 4 h) | Condition 1 Conversion (%) ([2]; time 24 h)
1 | COc1ccc([C@@]23CCC(=NNC(C)=O)C[C@@H]2N(C)CC3)cc1OC [Compound 222, N-[[(3aS,7aS)-3a-(3,4-dimethoxyphenyl)-1-methyl-2,3,4,5,7,7a-hexahydroindol-6-ylidene]amino]acetamide] | 10 | 20 | 50 | 100 | 100 | 100 | 100 | 100 | 100 | 100 | 100 | 100
2 | COc1ccc([C@@]23CCC(=NNC(=O)COc4ccccc4)C[C@@H]2N(C)CC3)cc1OC [Compound 223, N-[[(3aS,7aS)-3a-(3,4-dimethoxyphenyl)-1-methyl-2,3,4,5,7,7a-hexahydroindol-6-ylidene]amino]-2-phenoxy-acetamide] | 9.8 | 10.4 | 13.5 | 18.5 | 50.1 | 81.3 | 100 | 100 | 100 | 100 | 100 | 100
3 | COc1ccc([C@@]23CCC(=NOCCOc4ccccc4)C[C@@H]2N(C)CC3)cc1OC [Compound 234, (3aS,7aS)-3a-(3,4-dimethoxyphenyl)-1-methyl-N-(2-phenoxyethoxy)-2,3,4,5,7,7a-hexahydroindol-6-imine] | 0 | 0 | 0 | 0 | 0 | 0 | 0 | 0 | 0 | 0 | 2.16 | 2.63
4 | COc1ccc([C@@]23CCC(=NNC(=O)c4ccc(Cl)cc4)C[C@@H]2N(C)CC3)cc1OC [Compound 240, N-[[(3aS,7aS)-3a-(3,4-dimethoxyphenyl)-1-methyl-2,3,4,5,7,7a-hexahydroindol-6-ylidene]amino]-4-chloro-benzamide] | 35.7 | 30 | 40.5 | 43.3 | 54.2 | 100 | 84 | 100 | 100 | 100 | 100 | 100
5 | COc1ccc([C@@]23CCC(=NNC(=O)C(=O)O)C[C@@H]2N(C)CC3)cc1OC [Compound 241, 2-[2-[(3aS,7aS)-3a-(3,4-dimethoxyphenyl)-1-methyl-2,3,4,5,7,7a-hexahydroindol-6-ylidene]hydrazino]-2-oxo-acetic acid] | 0 | 28 | 30 | 52 | 86 | 100 | 100 | 100 | 100 | 100 | 100 | 100
6 | COc1ccc([C@@]23CCC(=NNC(=O)CC(CC(=O)O)CC(C)C)C[C@@H]2N(C)CC3)cc1OC (stereo partly drawn) [Compound 242, 3-[2-[2-[(3aS,7aS)-3a-(3,4-dimethoxyphenyl)-1-methyl-2,3,4,5,7,7a-hexahydroindol-6-ylidene]hydrazino]-2-oxo-ethyl]-5-methyl-hexanoic acid] | 33.46 | 36.51 | 38.53 | 40.8 | 55.46 | 55.7 | 75.01 | 95.02 | 96.13 | 97.72 | 98.02 | 98.34
7 | COc1ccc([C@@]23CC/C(=N\NC(=O)C4(C(=O)O)CC4)C[C@@H]2N(C)CC3)cc1OC [Compound 243, 1-[[[(3aS,7aS)-3a-(3,4-dimethoxyphenyl)-1-methyl-2,3,4,5,7,7a-hexahydroindol-6-ylidene]amino]carbamoyl]cyclopropanecarboxylic acid] | 0 | 0 | 0 | 0 | 27.04 | 46.78 | 80.17 | 100 | 100 | 100 | 100 | 100
8 | COc1ccc([C@@]23CC/C(=N\NC(=O)c4ccccc4C(=O)O)C[C@@H]2N(C)CC3)cc1OC [Compound 244, 2-[[[(3aS,7aS)-3a-(3,4-dimethoxyphenyl)-1-methyl-2,3,4,5,7,7a-hexahydroindol-6-ylidene]amino]carbamoyl]benzoic acid] | 0 | 0 | 4.08 | 15.25 | 24.59 | 66.56 | 33.93 | 100 | 100 | 100 | 100 | 100
9 | COc1ccc([C@@]23CC/C(=N\NC(=O)CCC(=O)O)C[C@@H]2N(C)CC3)cc1OC [Compound 245, 4-[2-[(3aS,7aS)-3a-(3,4-dimethoxyphenyl)-1-methyl-2,3,4,5,7,7a-hexahydroindol-6-ylidene]hydrazino]-4-oxo-butanoic acid] | 25 | 35 | 50 | 100 | 100 | 100 | 60 | 100 | 100 | 100 | 100 | 100
10 | COc1ccc([C@@]23CC/C(=N\NC(=O)Nc4ccccc4Cl)C[C@@H]2N(C)CC3)cc1OC [Compound 249, 1-[(E)-[(3aS,7aS)-3a-(3,4-dimethoxyphenyl)-1-methyl-2,3,4,5,7,7a-hexahydroindol-6-ylidene]amino]-3-(2-chlorophenyl)urea] | 0 | 0 | 0 | 0 | 9.23 | 24.65 | 0 | 70.48 | 96.4 | 96.5 | 96.72 | 96.8
11 | COc1ccc([C@@]23CCC(=NNC(=O)Nc4cccc(O)c4)C[C@@H]2N(C)CC3)cc1OC [Compound 251, 2-[(3aS,7aS)-3a-(3,4-dimethoxyphenyl)-1-methyloctahydro-6H-indol-6-ylidene)-N-(3-hydroxyphenyl)hydrazine-1-carboxamide] | 0 | 0 | 0 | 0 | 0 | 15.18 | 6.91 | 100 | 100 | 100 | 100 | 100
12 | COc1ccc(NC(=O)NN=C2CC[C@@]3(c4ccc(OC)c(OC)c4)CCN(C)[C@H]3C2)cc1 [Compound 254, 1-[[(3aS,7aS)-3a-(3,4-dimethoxyphenyl)-1-methyl-2,3,4,5,7,7a-hexahydroindol-6-ylidene]amino]-3-(4-methoxyphenyl)urea] | 0 | 0 | 0 | 1.1 | 16.2 | 17.6 | 0 | 2.4 | 84.7 | 91.9 | 91.9 | 92
13 | COc1ccc([C@@]23CCC(=NNC(=O)Nc4ccc(S(C)(=O)=O)cc4)C[C@@H]2N(C)CC3)cc1OC [Compound 255, 1-[[(3aS,7aS)-3a-(3,4-dimethoxyphenyl)-1-methyl-2,3,4,5,7,7a-hexahydroindol-6-ylidene]amino]-3-(4-methylsulfonylphenyl)urea] | 0 | 0 | 0 | 2.4 | 8.4 | 6 | 20.9 | 65.2 | 88.6 | 89.8 | 88.1 | 88
